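Assay format: 96-well plates, 48-hour exposure. GI50 marks 50% less growth. TGI: total growth inhibition.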
Key:
Assay in all cases: inhibition of tumour cell growth, NCI panel, 48 h
MALME-3M melanoma = test system: MALME-3M melanoma
SK-MEL-5 melanoma = test system: SK-MEL-5 melanoma
UO-31 renal = test system: UO-31 renal
EKVX NSCLC = test system: EKVX NSCLC
IGROV1 ovarian = test system: IGROV1 ovarian
TK-10 renal = test system: TK-10 renal
K-562 leukemia = test system: K-562 leukemia
SK-MEL-28 melanoma = test system: SK-MEL-28 melanoma
SK-OV-3 ovarian = test system: SK-OV-3 ovarian
KM12 colon = test system: KM12 colon

SMILES	TGI (MALME-3M melanoma) [µM]	TGI (SK-MEL-5 melanoma) [µM]	TGI (UO-31 renal) [µM]	TGI (EKVX NSCLC) [µM]	TGI (IGROV1 ovarian) [µM]	TGI (TK-10 renal) [µM]	TGI (K-562 leukemia) [µM]	TGI (SK-MEL-28 melanoma) [µM]	TGI (SK-OV-3 ovarian) [µM]	TGI (KM12 colon) [µM]	GI50 (MALME-3M melanoma) [µM]	GI50 (SK-MEL-5 melanoma) [µM]	GI50 (UO-31 renal) [µM]	GI50 (EKVX NSCLC) [µM]	GI50 (IGROV1 ovarian) [µM]	GI50 (TK-10 renal) [µM]	GI50 (K-562 leukemia) [µM]	GI50 (SK-MEL-28 melanoma) [µM]	GI50 (SK-OV-3 ovarian) [µM]	GI50 (KM12 colon) [µM]
CC1=C(C(=O)Nc2ccccc2C)C(c2ccc(C3C(C(=O)Nc4ccccc4C)=CNC=C3C(=O)Nc3ccccc3C)cc2)C(C(=O)Nc2ccccc2C)=C(C)N1	38.9	17.8	40	40.7	37.1	> 100	> 73.4	36.3	> 58.2	29.2	–	–	–	–	–	–	–	–	–	–
CN(C)/C=N/c1nc2ncn(CCOC(=O)c3ccccc3)c2c(=O)[nH]1	> 100	> 100	> 100	> 100	> 100	> 100	> 100	> 100	> 100	> 100	–	–	–	–	–	–	–	–	–	–
Cc1nc2cc(N)c(Cl)cc2[nH]1	> 100	> 100	> 100	> 100	> 100	> 100	> 100	> 100	> 100	> 100	–	–	–	–	–	–	–	–	–	–
Cc1ccc(S(=O)(=O)n2cc(-c3nnnn3-c3ccc(Cl)cc3)c(=O)c3ccccc32)cc1	> 100	> 100	> 100	> 100	> 100	> 100	> 100	> 100	> 100	> 100	> 100	70.6	52.5	> 100	> 100	> 100	20.1	> 100	> 100	> 100
O=C(/C=C/c1cccnc1)c1ccccc1O	62.9	31.1	28.9	> 100	50	> 100	80	72.3	> 100	> 100	22.2	16.1	13.4	34.7	20.1	27.6	20.9	24.1	33.7	32.2
CC(O[Si](C)(C)C)C1C=CC(C)n2c(=O)n(-c3ccccc3)c(=O)n21 (stereo not given)	> 100	> 100	> 100	> 100	> 100	> 100	> 100	> 100	> 100	> 100	–	–	–	–	–	–	–	–	–	–
CSc1ccc2c(cc1=O)[C@@H](NC(=O)c1ccc(F)cc1)CCc1cc(O)c(O)c(O)c1-2	> 100	> 100	> 100	> 100	> 100	> 100	> 100	> 100	> 100	> 100	–	–	–	–	–	–	–	–	–	–
COC(=O)C(Cc1nc2ccccc2[nH]c1=O)C(=O)C(=O)Nc1ccc(OC)cc1[N+](=O)[O-] (stereo not given)	> 100	> 100	> 100	> 100	> 100	> 100	> 100	> 100	> 100	> 100	–	–	–	–	–	–	–	–	–	–
CCOC(=O)/C=C/c1ccccn1	> 100	> 100	> 100	> 100	> 100	> 100	> 100	> 100	> 100	> 100	–	–	–	–	–	–	–	–	–	–
COc1ccc(/C=C/C(=O)c2ccc(Nc3ccnc4cc(Cl)ccc34)cc2)cc1	> 100	> 100	> 100	> 100	> 100	> 100	> 54	> 100	> 100	> 100	> 100	21.6	> 100	> 100	> 100	> 100	4.15	> 100	> 100	> 79.4
O=c1/c(=C/c2ccc3c(c2)OCO3)sc2nnc(-c3ccco3)n12	> 100	> 100	> 100	> 100	> 100	> 100	> 100	> 100	> 100	> 100	–	–	–	–	–	–	–	–	–	–
O=[N+]([O-])c1ccc(-c2cn(-c3ccc(Cl)cc3)cn2)cc1	> 100	> 100	> 100	> 100	> 100	67.5	> 100	> 100	24.4	> 100	–	–	–	–	–	–	–	–	–	–
COc1cc(NC(N)=NCCC(C)(C)c2ccc(C(F)(F)F)cc2)ncc1C#N	3.47	2.94	2.66	2.87	3.39	2.88	5.02	3.52	4.06	3.38	1.82	1.58	1.34	1.4	1.68	1.51	1.42	2.01	2.13	1.8
N#CC1=C(c2ccccc2)C(O)(c2ccccc2)NC1=O (stereo not given)	74	> 100	> 100	> 100	> 100	> 100	> 100	> 100	88.9	> 100	–	–	–	–	–	–	–	–	–	–
Oc1cc2c(cc1O)-c1[nH]ncc1CC2	> 100	> 100	79.1	61.1	> 100	> 100	> 100	> 100	> 100	> 100	–	–	–	–	–	–	–	–	–	–
Cc1cc2c(cc1C)[n+](=O)c(C(=O)/C=C/c1ccccc1Cl)c(C)n2[O-]	94.5	59.6	48.2	> 100	37.9	57.3	> 100	86.8	73.1	96.2	–	–	–	–	–	–	–	–	–	–
